One assay has as its target T1, mouse ENaC (Mus musculus, UniProt Q61180+Q9WU38+Q9WU39, DEL206-231).
T1 construct: expressed in transfected cells; host or cells: Xenopus laevis oocytes (cRNA injection)
T1 sequence (Q61180 with tags, fused parts or gaps DEL206-231): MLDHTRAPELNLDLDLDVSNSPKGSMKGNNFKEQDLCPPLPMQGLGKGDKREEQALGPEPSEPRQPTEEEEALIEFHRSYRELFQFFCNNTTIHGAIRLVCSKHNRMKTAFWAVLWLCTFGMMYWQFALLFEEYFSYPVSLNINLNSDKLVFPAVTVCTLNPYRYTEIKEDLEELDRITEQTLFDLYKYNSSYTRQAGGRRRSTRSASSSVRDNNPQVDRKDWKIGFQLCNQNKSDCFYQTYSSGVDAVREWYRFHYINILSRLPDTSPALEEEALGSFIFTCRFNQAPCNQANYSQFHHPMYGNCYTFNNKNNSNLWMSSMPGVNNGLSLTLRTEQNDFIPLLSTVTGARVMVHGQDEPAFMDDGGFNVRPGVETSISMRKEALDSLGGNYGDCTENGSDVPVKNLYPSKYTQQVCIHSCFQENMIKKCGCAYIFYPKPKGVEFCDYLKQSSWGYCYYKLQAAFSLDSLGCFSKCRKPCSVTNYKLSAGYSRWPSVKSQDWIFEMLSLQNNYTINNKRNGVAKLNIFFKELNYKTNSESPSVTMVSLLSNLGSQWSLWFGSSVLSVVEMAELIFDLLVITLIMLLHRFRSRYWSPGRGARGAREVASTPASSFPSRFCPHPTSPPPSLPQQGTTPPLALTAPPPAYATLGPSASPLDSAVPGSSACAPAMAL
T1 sequence (Q9WU38 1-638): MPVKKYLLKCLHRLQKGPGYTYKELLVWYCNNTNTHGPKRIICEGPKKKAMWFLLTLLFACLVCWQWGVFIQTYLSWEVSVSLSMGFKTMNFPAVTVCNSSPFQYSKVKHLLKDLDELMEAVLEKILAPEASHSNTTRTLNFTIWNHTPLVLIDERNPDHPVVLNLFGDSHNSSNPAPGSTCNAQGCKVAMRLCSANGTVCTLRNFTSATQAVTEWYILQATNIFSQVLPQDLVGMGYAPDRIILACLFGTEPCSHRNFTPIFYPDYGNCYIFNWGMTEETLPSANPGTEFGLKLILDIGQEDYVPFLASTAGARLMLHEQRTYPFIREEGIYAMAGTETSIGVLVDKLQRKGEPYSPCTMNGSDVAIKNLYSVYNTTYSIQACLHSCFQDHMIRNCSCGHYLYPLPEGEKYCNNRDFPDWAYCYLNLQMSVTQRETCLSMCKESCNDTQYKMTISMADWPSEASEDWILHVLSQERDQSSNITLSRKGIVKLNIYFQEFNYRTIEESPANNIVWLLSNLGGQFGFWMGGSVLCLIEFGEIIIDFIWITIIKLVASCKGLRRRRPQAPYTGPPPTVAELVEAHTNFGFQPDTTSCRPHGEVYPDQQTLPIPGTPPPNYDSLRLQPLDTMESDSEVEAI
T1 sequence (Q9WU39 1-655): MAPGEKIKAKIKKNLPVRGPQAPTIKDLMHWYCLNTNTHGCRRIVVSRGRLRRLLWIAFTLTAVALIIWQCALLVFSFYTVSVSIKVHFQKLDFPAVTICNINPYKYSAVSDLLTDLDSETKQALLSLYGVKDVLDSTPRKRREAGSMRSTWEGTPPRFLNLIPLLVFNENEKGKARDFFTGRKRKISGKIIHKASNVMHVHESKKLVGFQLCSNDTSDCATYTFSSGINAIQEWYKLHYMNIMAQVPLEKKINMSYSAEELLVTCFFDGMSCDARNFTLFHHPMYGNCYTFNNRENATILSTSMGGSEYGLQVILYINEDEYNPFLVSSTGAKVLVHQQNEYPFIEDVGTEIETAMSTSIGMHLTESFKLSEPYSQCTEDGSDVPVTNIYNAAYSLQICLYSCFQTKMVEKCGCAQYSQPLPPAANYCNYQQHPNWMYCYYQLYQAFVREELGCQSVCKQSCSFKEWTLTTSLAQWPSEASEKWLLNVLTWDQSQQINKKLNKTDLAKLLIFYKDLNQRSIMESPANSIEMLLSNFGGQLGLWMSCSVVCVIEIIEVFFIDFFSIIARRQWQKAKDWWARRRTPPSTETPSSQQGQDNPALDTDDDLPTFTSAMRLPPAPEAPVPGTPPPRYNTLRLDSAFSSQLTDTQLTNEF
Kind of assay: Two-electrode voltage clamp, amiloride-sensitive whole cell Na+ current in Xenopus oocytes expressing wild-type αβγ ENaC. The assay is classed as cell-based. From the text: Oocyte Expression—cRNAs for α, β, γ mouse ENaC (wild-type and mutant) subunits and mouse prostasin were synthesized with T3 or T7 m-Message mMachineTM (Ambion, Austin, Tex.). Subunits carrying furin cleavage consensus site mutations and the corresponding wild-type subunits have amino-terminal HA and carboxyl-terminal V5 tags (Hughey, R. P., Bruns, J. B., Kinlough, C. L., Harkleroad, K. L., Tong, Q., Carattino, M. D., Johnson, J. P., Stockand, J. D., and Kleyman, T. R. (2004) J. Biol. Chem. 279, 18111-18114 18). Stage V-VI Xenopus laevis oocytes were pretreated with 1.5 mg/ml of type IV collagenase and injected with 0.5-2 ng of cRNA/subunit. Injected oocytes were maintained as previously reported (Carattino, M. D., Hill, W. G., and Kleyman, T. R. (2003), Arachidonic Acid Regulates Surface Expression of Epithelial Sodium Channels, J Biol. Chem. 278, 36202-36213 29).
Two-electrode Voltage Clamp—Two-electrode voltage clamp (TEV) was performed as previously described (Carattino, M. D., Hill, W. G., and Kleyman, T. R. (2003) J Biol. Chem. 278, 36202-36213 29). The extracellular solution (TEV solution) was (in mM): 110 NaCl, 2 KCl, 1.54 CaCl2, 10 HEPES, pH 7.4, or otherwise as indicated. […] Experiments with oocytes co-expressing ENaC and prostasin and the corresponding controls were performed in the presence of aprotinin (1 μM) to impede any potential degradation of α-26 by prostasin.
Data and Statistical Analyses—and mean time of inhibition are expressed as the mean with a 95% confidence interval (CI); otherwise, data were expressed as the mean ±S.E. (n), where “n” equals the number of independent experiments analyzed. IC50 was estimated from normalized currents plotted as a function of the peptide concentration fitted, as shown in Equation 1 y=t/(1+10^(logX−log/C50)) (Eq. 1) where y is the response variable, X is the concentration of peptide, and IC50 is the concentration of peptide that provokes a response half way between the baseline (t) and maximum response. […] Results
A general note: In two-electrode clamp one electrode senses voltage and the other passes current.

Assay [1] addresses T2, endogenous ENaC in HAE cells (Homo sapiens, UniProt P37088+P51168+P51170).
T2 construct: endogenous in cells; host or cells: primary human airway (bronchial) epithelial cells from transplant or donor lungs
Particulars: human airway cells; stated jointly with mouse CCD; Carattino 2006; read-out: IC50, inhibition of ENaC activity; cited from earlier work.

Where two headings read alike, the source gives them in different places.

This is an account of results in patent US20070149456A1, “Epithelial sodium channel inhibiting agents and uses therefor” (University of Pittsburgh, priority 2005, published 2007).

The Ki is the dissociation constant of the complex between target and ligand, obtained from inhibition or displacement. A high value points to lower affinity. As a reminder, the IC50 is the concentration needed to halve the response being measured.

T2 sequence (P37088 1-178): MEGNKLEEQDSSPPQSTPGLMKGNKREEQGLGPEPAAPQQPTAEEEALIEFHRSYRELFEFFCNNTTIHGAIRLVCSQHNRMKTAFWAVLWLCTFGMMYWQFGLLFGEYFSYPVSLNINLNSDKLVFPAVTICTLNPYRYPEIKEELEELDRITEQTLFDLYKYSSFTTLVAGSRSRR
T2 sequence (P37088 205-669): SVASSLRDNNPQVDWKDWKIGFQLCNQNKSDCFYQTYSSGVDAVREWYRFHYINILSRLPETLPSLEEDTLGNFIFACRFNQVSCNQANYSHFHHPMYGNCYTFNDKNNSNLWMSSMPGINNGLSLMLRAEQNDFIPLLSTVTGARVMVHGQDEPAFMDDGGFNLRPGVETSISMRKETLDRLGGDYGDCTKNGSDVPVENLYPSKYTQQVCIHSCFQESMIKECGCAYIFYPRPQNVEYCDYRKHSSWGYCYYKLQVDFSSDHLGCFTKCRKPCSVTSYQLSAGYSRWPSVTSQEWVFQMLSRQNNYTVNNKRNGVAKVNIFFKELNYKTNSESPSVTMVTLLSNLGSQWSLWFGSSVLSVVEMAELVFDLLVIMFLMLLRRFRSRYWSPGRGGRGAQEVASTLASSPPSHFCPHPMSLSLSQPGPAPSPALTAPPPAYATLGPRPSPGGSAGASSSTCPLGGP
T2 sequence (P51168 whole entry): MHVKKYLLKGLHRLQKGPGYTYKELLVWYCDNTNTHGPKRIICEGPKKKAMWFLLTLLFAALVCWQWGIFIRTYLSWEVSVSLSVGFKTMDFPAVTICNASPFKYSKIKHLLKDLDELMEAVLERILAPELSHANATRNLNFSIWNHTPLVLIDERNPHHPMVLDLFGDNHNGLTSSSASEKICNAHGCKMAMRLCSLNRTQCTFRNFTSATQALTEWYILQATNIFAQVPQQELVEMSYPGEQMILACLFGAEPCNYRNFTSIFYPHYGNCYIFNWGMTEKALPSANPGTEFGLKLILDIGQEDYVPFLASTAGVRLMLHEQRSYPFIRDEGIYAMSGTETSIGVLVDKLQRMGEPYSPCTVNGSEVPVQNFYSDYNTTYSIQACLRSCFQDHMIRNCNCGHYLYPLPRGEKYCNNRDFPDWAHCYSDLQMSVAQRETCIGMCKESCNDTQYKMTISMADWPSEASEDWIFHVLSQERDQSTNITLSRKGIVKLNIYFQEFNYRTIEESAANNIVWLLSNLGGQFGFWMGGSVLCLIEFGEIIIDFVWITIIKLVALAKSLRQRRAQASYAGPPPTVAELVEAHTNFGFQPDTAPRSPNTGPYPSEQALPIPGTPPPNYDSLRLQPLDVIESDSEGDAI
T2 sequence (P51170 1-138): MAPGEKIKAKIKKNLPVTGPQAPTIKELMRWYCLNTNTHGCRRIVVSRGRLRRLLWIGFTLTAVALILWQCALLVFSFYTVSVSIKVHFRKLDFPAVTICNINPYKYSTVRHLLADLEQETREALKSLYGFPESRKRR
T2 sequence (P51170 182-649): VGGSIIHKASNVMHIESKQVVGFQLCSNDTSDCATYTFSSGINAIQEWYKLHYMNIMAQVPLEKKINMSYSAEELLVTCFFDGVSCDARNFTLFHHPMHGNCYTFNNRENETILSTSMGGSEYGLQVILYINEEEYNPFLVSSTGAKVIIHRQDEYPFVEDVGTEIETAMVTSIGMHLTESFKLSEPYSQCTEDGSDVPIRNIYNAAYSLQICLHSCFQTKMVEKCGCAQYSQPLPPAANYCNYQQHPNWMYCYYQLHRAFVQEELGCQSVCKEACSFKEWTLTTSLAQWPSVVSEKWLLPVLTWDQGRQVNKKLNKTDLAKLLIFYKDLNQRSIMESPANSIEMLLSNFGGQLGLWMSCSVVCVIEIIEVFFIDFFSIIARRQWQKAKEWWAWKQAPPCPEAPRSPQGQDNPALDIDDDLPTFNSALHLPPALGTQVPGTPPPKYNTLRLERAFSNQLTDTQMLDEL

Take “Ac-DLRGALPHPLQRLRTPPPPNPARSAR-NH2 [α-26]”: the Ki at mouse ENaC is ~3000 nM. Also, at mouse ENaC (1 μM α-26), the “time required to achieve half maximal inhibition” value was 42 s. The IC50 at mouse ENaC (amiloride-sensitive current, 3 min perfusion with peptide (FIG. 3A), read-out: IC50, inhibition of wild-type αβγ) was 2800 nM; at mouse ENaC (holding potential −20 mV, read-out: IC50 at holding potential −20 mV) it was 2900 nM; on mouse ENaC (holding potential −100 mV, read-out: IC50 at holding potential −100 mV), 2900 nM; in assay [1] it was 50000 to 100000 nM. The reversibility of block result on mouse ENaC (α-26 1 μM, washout (FIG. 3D)) is “reversible inhibitor”.
